According to patent US8343961B2, “Substituted heterocyclic compounds” (ArQule, Inc., priority 2009, dated 2013):

Tests used:
EphA8 = target: T1, EphA8 (Homo sapiens, UniProt P29322); assay: EphA8 Kinase Activity Assay; type: biochemical; conditions: read-out: EphA8, % INH, at 30 uM
T1 sequence (P29322 28-1005): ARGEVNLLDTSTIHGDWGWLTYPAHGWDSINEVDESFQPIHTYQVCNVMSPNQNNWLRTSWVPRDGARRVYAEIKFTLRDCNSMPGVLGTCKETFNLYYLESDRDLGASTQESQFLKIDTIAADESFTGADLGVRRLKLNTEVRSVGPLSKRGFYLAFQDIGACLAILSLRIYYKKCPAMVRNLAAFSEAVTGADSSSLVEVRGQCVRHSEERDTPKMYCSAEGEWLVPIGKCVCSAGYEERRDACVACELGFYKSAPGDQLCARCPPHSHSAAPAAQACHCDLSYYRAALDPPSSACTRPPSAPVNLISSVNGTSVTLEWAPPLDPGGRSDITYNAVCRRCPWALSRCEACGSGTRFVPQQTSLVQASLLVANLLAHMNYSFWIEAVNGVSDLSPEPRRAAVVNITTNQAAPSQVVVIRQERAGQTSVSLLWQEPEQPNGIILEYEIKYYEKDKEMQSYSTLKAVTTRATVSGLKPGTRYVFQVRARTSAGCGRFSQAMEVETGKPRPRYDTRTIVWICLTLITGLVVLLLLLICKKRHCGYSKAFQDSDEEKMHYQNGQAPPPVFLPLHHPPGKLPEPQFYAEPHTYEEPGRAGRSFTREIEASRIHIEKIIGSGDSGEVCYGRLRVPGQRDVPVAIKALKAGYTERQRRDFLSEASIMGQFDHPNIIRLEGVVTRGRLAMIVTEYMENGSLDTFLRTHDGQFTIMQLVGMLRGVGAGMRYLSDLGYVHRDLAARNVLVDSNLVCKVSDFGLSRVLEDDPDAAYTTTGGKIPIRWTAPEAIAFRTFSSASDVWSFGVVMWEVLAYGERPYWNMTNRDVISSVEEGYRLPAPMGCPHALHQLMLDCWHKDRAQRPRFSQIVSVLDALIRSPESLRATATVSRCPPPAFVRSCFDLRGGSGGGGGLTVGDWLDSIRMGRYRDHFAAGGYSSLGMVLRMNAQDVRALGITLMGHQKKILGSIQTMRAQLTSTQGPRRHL
Procedure: Nunc Maxisorb plates are coated with streptavidin by overnight incubation with 100 μL per well of 1 μg/ml Streptavidin in DPBS. Prior to the start of the experiment, the plates are washed with TBST (3×200 μL) and blocked for at least 1 hour by adding 150 μL of 5% BSA/TBST. The plates are washed with TBST (3×200 μL/well) and left dry immediately before the capture step.
The test articles and control (Staurosporine) are prepared using the following assay buffer @ 3× desired final concentration (50 mM Tris-HCl, 0.02 mg/ml BSA, 10 mM MgCl2, 0.1 mM Na3VO4, 1 mM EGTA, 12.5 μM ATP, 0.01% NP-40, 1 mM DTT in 10% glycerol/water). In a reaction plate are added rapidly 20 μl test article (or control) and 20 μl EphA8 (0.12 ng/μl final concentration). The plate is incubated for 15 minutes. To the reaction plate is added 20 μl of Pyk-2 (0.75 ng/μl final concentration). The plate is incubated at room temperature for one hour. From the reaction plate, 50 μl is transferred to the streptavidin coated plate. The capture plate is incubated at room temperature for 30 minutes, then washed 6× with TBST. To the capture plate is added 100 μL/well of Cell Signaling anti-phospho tyrosine at a dilution of 1:3000 in 2% BSA/TBST. The plate is incubated for one hour at room temperature then washed 6× with TBST. To the capture plate is added 100 μL/well of Alkaline Phosphatase Tagged Goat anti Mouse Antibody at a dilution of 1:4000 in 2% BSA/TBST. The plate is incubated for one hour at room temperature then washed 6× with TBST. The fluorescent readout is initiated by the addition of 100 μl/well of Attophos reagent (6 mg/10 mL). The reading is done on the Perkin Elmer Envision system.

DLD-1 = assay: MTS Cellular Assay, DLD-1; type: cell-based; conditions: Homo sapiens, DLD-1, 72 hours
Procedure: (§1) Cells were maintained at 37° C., 5% CO2 in DMEM media supplemented with 1% fetal bovine serum, penicillin/streptomycin and fungizone (Invitrogen). Cells were seeded into 96-well tissue culture plates at 3000 per well and cultured at 37° C. for 18 hours. Test compounds were dissolved and diluted to 300× in DMSO then further diluted 1:40 in DMEM before addition to cells (1:7.5 dilution). Cells were incubated with test compounds for 72 hours followed by incubation with tetrazolium compound (3-(4,5-dimethylthiazol-2-yl)-5-(3-carboxymethoxyphenyl)-2-(4-sulfophenyl)-2H-tetrazolium, inner salt; MTS) and the electron coupling reagent, phenazine methosulfate (PMS) for 4 hours. […] The ability of compounds to inhibit cell growth in this assay is correlated with the reduction of dehydrogenase enzyme activity found in metabolically active cells. The measurement of the absorbance of the formazan was assessed using an ENVISION™ (Perkin Elmer) microplate reader at 492 nm. The calculated IC50 value is the concentration of the test compound that causes a 50% decrease in the absorbance.

KATO III = assay: MTS Cellular Assay, KATO III; type: cell-based; conditions: Homo sapiens, 72 hours
Procedure: as §1

MDA-MB-231 = assay: MTS Cellular Assay, MDA-MB-231; type: cell-based; conditions: Homo sapiens, MDA-MB-231, 72 hours
Procedure: as §1

NCI-H1299 = assay: MTS Cellular Assay, NCI-H1299; type: cell-based; conditions: Homo sapiens, NCI-H1299, 72 hours
Procedure: as §1

PACA-2 = assay: MTS Cellular Assay, PACA-2; type: cell-based; conditions: PACA-2, 72 hours
Procedure: as §1

PC-3 = assay: MTS Cellular Assay, PC-3; type: cell-based; conditions: Homo sapiens, PC-3, 72 hours
Procedure: as §1

| Compound | inhibition at 30 µM (EphA8) [%] | inhibition at 10 µM (DLD-1) [%] | inhibition at 10 µM (KATO III) [%] | inhibition at 10 µM (MDA-MB-231) [%] | inhibition at 10 µM (NCI-H1299) [%] | inhibition at 10 µM (PACA-2) [%] | inhibition at 10 µM (PC-3) [%] |
| --- | --- | --- | --- | --- | --- | --- | --- |
| Nc1nc(N2CCN(CCCc3cccc(Cl)c3)c3ccccc3C2)c2cn[nH]c2n1 [Compound 8, 4-{1-[3-(3-chlorophenyl)propyl]-1,2,3,5-tetrahydro-4H-1,4-benzodiazepin-4-yl}-1H-pyrazolo[3,4-d]pyrimidin-6-amine] | < 50 | > 79 | < 50 | < 50 | 50 to 79 | < 50 | < 50 |
| Cc1ccccc1CN1CCN(c2nc(N)nc3[nH]ncc23)Cc2ccccc21 [Compound 12, 4-[1-(2-methylbenzyl)-1,2,3,5-tetrahydro-4H-1,4-benzodiazepin-4-yl]-1H-pyrazolo[3,4-d]pyrimidin-6-amine] | < 50 |  |  |  |  |  |  |
| Nc1nc(N2CCN(Cc3ccc(F)cc3)c3ccccc3C2)c2nc[nH]c2n1 [Compound 15, 6-[1-(4-fluorobenzyl)-1,2,3,5-tetrahydro-4H-1,4-benzodiazepin-4-yl]-9H-purin-2-amine] | < 50 |  |  |  |  |  |  |
| COc1cccc(CN2CCN(c3nc(N)nc4[nH]ncc34)Cc3ccccc32)c1 [Compound 1, 4-[1-(3-methoxybenzyl)-1,2,3,5-tetrahydro-4H-1,4-benzodiazepin-4-yl]-1H-pyrazolo[3,4-d]pyrimidin-6-amine] | 50 to 79 |  |  |  |  |  |  |
| CC(C)c1ccc(CN2CCN(c3nc(N)nc4[nH]ncc34)Cc3ccccc32)cc1 [Compound 4, 4-[1-(4-isopropylbenzyl)-1,2,3,5-tetrahydro-4H-1,4-benzodiazepin-4-yl]-1H-pyrazolo[3,4-d]pyrimidin-6-amine] | < 50 |  |  |  |  |  |  |
| Nc1nc(N2CCN(Cc3cccc(C(F)(F)F)c3)c3ccccc3C2)c2nc[nH]c2n1 [Compound 20, 6-{1-[3-(trifluoromethyl)benzyl]-1,2,3,5-tetrahydro-4H-1,4-benzodiazepin-4-yl}-9H-purin-2-amine] | 50 to 79 |  |  |  |  |  |  |

The next lines start with results.

| inhibition at 30 µM (EphA8) [%] | Compound | inhibition at 10 µM (DLD-1) [%] | inhibition at 10 µM (KATO III) [%] | inhibition at 10 µM (MDA-MB-231) [%] | inhibition at 10 µM (NCI-H1299) [%] | inhibition at 10 µM (PACA-2) [%] | inhibition at 10 µM (PC-3) [%] |
| --- | --- | --- | --- | --- | --- | --- | --- |
| 50 to 79 | CC(C)(C)c1ccc(CN2CCN(c3nc(N)nc4[nH]cnc34)Cc3ccccc32)cc1 [Compound 29, 6-[1-(4-tert-butylbenzyl)-1,2,3,5-tetrahydro-4H-1,4-benzodiazepin-4-yl]-9H-purin-2-amine] | < 50 | < 50 | < 50 | < 50 | < 50 | < 50 |
| < 50 | COc1ccc(OC)c(CN2CCN(c3nc(N)nc4[nH]ncc34)Cc3ccccc32)c1 [Compound 36, 4-[1-(2,5-dimethoxybenzyl)-1,2,3,5-tetrahydro-4H-1,4-benzodiazepin-4-yl]-1H-pyrazolo[3,4-d]pyrimidin-6-amine] | > 79 | > 79 | > 79 | > 79 | > 79 | > 79 |
| < 50 | Nc1nc(N2CCN(Cc3ccc(Cl)cc3Cl)c3ccccc3C2)c2cn[nH]c2n1 [Compound 32, 4-[1-(2,4-dichlorobenzyl)-1,2,3,5-tetrahydro-4H-1,4-benzodiazepin-4-yl]-1H-pyrazolo[3,4-d]pyrimidin-6-amine] | > 79 | 50 to 79 | < 50 | > 79 | < 50 | < 50 |
| < 50 | Nc1nc(N2CCN(Cc3cccc(C(F)(F)F)c3)c3ccccc3C2)c2cn[nH]c2n1 [Compound 21, 4-{1-[3-(trifluoromethyl)benzyl]-1,2,3,5-tetrahydro-4H-1,4-benzodiazepin-4-yl}-1H-pyrazolo[3,4-d]pyrimidin-6-amine] | > 79 | > 79 | > 79 | < 50 | < 50 | > 79 |
| < 50 | CC(C)(C)c1ccc(CN2CCN(c3nc(N)nc4[nH]ncc34)Cc3ccccc32)cc1 [Compound 30, 4-[1-(4-tert-butylbenzyl)-1,2,3,5-tetrahydro-4H-1,4-benzodiazepin-4-yl]-1H-pyrazolo[3,4-d]pyrimidin-6-amine] | > 79 | < 50 | < 50 | 50 to 79 | < 50 | < 50 |
| < 50 | COc1ccc(CN2CCN(c3nc(N)nc4[nH]ncc34)Cc3ccccc32)cc1OC [Compound 28, 4-[1-(3,4-dimethoxybenzyl)-1,2,3,5-tetrahydro-4H-1,4-benzodiazepin-4-yl]-1H-pyrazolo[3,4-d]pyrimidin-6-amine] | > 79 | > 79 | > 79 | > 79 | > 79 | > 79 |
| < 50 | Nc1nc(N2CCN(CCCc3cccc(F)c3)c3ccccc3C2)c2nc[nH]c2n1 [Compound 39, 6-{1-[3-(3-fluorophenyl)propyl]-1,2,3,5-tetrahydro-4H-1,4-benzodiazepin-4-yl}-9H-purin-2-amine] | > 79 | > 79 | > 79 | > 79 | > 79 | > 79 |
| 50 to 79 | Nc1nc(N2CCN(Cc3ccc(Cl)cc3)c3ccccc3C2)c2cn[nH]c2n1 [Compound 23, 4-[1-(4-chlorobenzyl)-1,2,3,5-tetrahydro-4H-1,4-benzodiazepin-4-yl]-1H-pyrazolo[3,4-d]pyrimidin-6-amine] | > 79 | < 50 | 50 to 79 | > 79 | < 50 | < 50 |
| < 50 | Cc1cccc(CN2CCN(c3nc(N)nc4[nH]ncc34)Cc3ccccc32)c1 [Compound 34, 4-[1-(3-methylbenzyl)-1,2,3,5-tetrahydro-4H-1,4-benzodiazepin-4-yl]-1H-pyrazolo[3,4-d]pyrimidin-6-amine] |  |  |  |  |  |  |
| < 50 | Cc1ccc(CN2CCN(c3nc(N)nc4[nH]cnc34)Cc3ccccc32)cc1 [Compound 26, 6-[1-(4-methylbenzyl)-1,2,3,5-tetrahydro-4H-1,4-benzodiazepin-4-yl]-9H-purin-2-amine] |  |  |  |  |  |  |
